Measurements reported in US9493421B2, “Acridinedione derivatives for treating pigmentation disorders and ageing of the skin” (PIERRE FABRE DERMO-COSMETIQUE, priority 2011, dated 2016).
Where “and” joins values, the source holds several entries; their conditions need not be identical. Equal values may be shown once.

Experiments:
[1] = parameters: key: very good: 0.1 to 3.0; good: 3.01 to 50; average: 50.1 to 1000; poor: >1000; none: NEGATIVE; details: reference products of the interpretation scale; cited from earlier work
[2] = system: B16-F10 cells; assay: Assay of melanin in B16-F10 cells (colorimetric, α-MSH stimulated); assay type: cell-based, murine; details: Mus musculus, B16-F10, 72 h, 0.1 μM α-MSH, negative = inhibition, positive = stimulation, read-out: Melanin synthesis on B16
Experimental: It is a test to measure the synthesis of melanin by colorimetric assay on a murine melanoma cell line: line B16-F10. With this test it is possible to evaluate the depigmenting or propigmenting property of active ingredients.
The B16-F10 cells were seeded in 96-well plates in DMEM medium supplemented with FCS (foetal calf serum), and incubated 24 h at 37° C., 5% CO2. The cells were stimulated with 0.1 μM α-MSH (to stimulate melanin synthesis, the observed stimulation being about 150%) and treated 72 h with the active ingredients to be assayed. Each concentration of active ingredient was assayed at least in triplicate. Total melanin and intracellular melanin dissolved in lysis buffer were assayed by absorbance read-off at 405 nm. The total proteins were assayed in the lysate and the results expressed in mg melanin/mg proteins. Percentage activity was calculated as follows: […]
A negative value indicates inhibition of the melanin synthesis and translates depigmenting activity of the compound, whereas a positive value indicates induced melanin synthesis and translates a propigmenting property of the molecule.
• B16-F10 cell lines between P10 and P20 (murine melanocytes) (ATCC, CRL-6475); • reagents: DMEM without Phenol Red (GIBCOBRL, 118800-028), 200 mM glutamax-I supplement (GIBCOBRL, 35050-038), glucose (SIGMA, G7021), PBS (GIBCOBRL, 14190-094), foetal calf serum (Invitrogen, 10270-098), trypsin-EDTA (GIBCOBRL, 25300-054), NaOH (Sigma, S8045-500G), DMSO (Sigma, 471267-11), Nle, Phe-Melanocyte Stimulating Hormone (Sigma, M-8764), melanin (Sigma, M-0418), BCA-COPPER (SIGMA, B9643 and C2284), BSA (SIGMA, P0914) B) Test to Study Anti-Oxidizing Capability Using Chemiluminescence (Photochem Analytic Jena) Principle

[3] = Test to study anti-oxidizing capability using chemiluminescence (Photochem Analytic Jena); assay type: biochemical; details: quantity of sample needed for activity equivalent to 1 μg Trolox, superoxide anion trapping
Experimental: This test is used to determine the anti-oxidizing capability of the molecules. It is a method which generates free radicals via photochemical signal. The intensity of oxidation is 1000 times higher than obtained under normal conditions.
Detection is performed using chemiluminescence. This allows evaluation of water-soluble and liposoluble antioxidant molecules or extracts
The results are expressed in equivalent quantity of vitamin C or Trolox (6-hydroxy-2,5,7,8-tetramethylchroman-2-carboxylic acid) respectively. Sensitivity is in the order of one nanomole.
The anti-oxidizing activity studied in this test represents the capability of specifically trapping superoxide anions by chemiluminescence.
The quantified results are expressed in Trolox equivalent (standard) or in “μg of product per 1 μg of Trolox”. This means that a quantity x of sample is needed to obtain activity equivalent to the activity detected with 1 μg of standard. It is the antioxidizing power in relation to a reference; this avoids having to take into account the concentrations tested.
The superoxide radical: O2^∘^− is generated by photochemical reaction: L+hv(UV)+O2→L*O2→L^∘^++O2^∘^− • L*: luminol in the excited state L^∘+: luminol radical Signal Detection
Part of the superoxide anions are inhibited by the antioxidants. The remaining free radicals are quantified by chemiluminescence. L^∘^++O2^∘^−→N2+AP*^2−→AP^2−+hv (luminescence)
AP*^2−: aminophthalate in the excited state

[4] = Log P (octanol/water partition coefficient); assay type: physicochemical
Description: Log P, also called Log Kow, is a measurement of the differential solubility of chemical compounds in two solvents (octanol/water partition coefficient).
Log P is equal to the logarithm of the ratio of the concentrations of the examined substance in octanol and in water. Log P=Log(Coct/Cwater). With this value it is possible to assess the hydrophilic or hydrophobic (lipophilic) nature of a molecule. If Log P is positive and very high, this means that the molecule under consideration is much more soluble in octanol than in water, which reflects its lipophilic nature, and conversely. A value of Log P=0 means that the molecule is distributed equally between the two phases and Coct=Cwater (C. Hansch, J. F. Quinlan, G. L. Lawrence, Linear free energy relationship between partition coefficients and the aqueous solubility of organic liquids, J. Org. Chem., 33 (1968), 347-350; C. Hansch, A. Leo, Exploring QSAR—Fundamentals and Applications in Chemistry and Biology, American Chemical Society, Washington, 1995; J. Sangster, Octanol—Water Partition Coefficients: Fundamentals and Physical Chemistry, Wiley, Chichester, 1997; W. Jorgensen, E. Duffy, Advanced Drug Delivery Reviews, (54), 2002, 355-366).

Row | Compound | Activity (scale for interpretation of results) [1] | μg sample per 1 μg of Trolox [3] | logP [4] | other results
1 | O=C(O)CCCC[C@@H]1CCSS1 (racemic) [Lipoic acid] | none |  |  | 
2 | Cc1cc(C(C)(C)C)c(O)c(C(C)(C)C)c1 [BHT] | good (3.01 to 50) |  |  | 
3 | N[C@@H](CS)C(=O)O [Cystein] | average (50.1 to 1000) |  |  | 
4 | CCCCCCCCCCCCN1C2=C(C(=O)CC(C)(C)C2)C(c2ccc(O)c(OC)c2)C2=C1CC(C)(C)CC2=O [Example 1, 10-dodecyl-9-(4-hydroxy-3-methoxyphenyl)-3,3,6,6-tetramethyl-3,4,6,7,9,10-hexahydroacridine-1,8(2H,5H)-dione] |  | 2.45 μg sample per 1 μg of Trolox | 6.3 | activation at 2 µM ([2]; at 2 μM): -40%
5 | CCCCCCCCCCN1C2=C(C(=O)CC(C)(C)C2)C(c2ccc(O)c(O)c2)C2=C1CC(C)(C)CC2=O [Example 3, 10-decyl-9-(3,4-dihydroxyphenyl)-3,3,6,6-tetramethyl-3,4,6,7,9,10-hexahydroacridine-1,8(2H,5H)-dione] |  | 0.015 μg sample per 1 μg of Trolox | 5.21 | activation at 20 µM [2]: -46%
6 | CN1C2=C(C(=O)CC(c3ccccc3)C2)C(c2ccc(O)c(O)c2)C2=C1CC(c1ccccc1)CC2=O (stereo not shown) [Example 5, 9-(3,4-dihydroxyphenyl)-10-methyl-3,6-diphenyl-3,4,6,7,9,10-hexahydroacridine-1,8(2H,5H)-dione] |  | 0.05 μg sample per 1 μg of Trolox |  | 
7 | CCCCCCCCCCN1C2=C(C(=O)CC(c3ccccc3)C2)C(c2ccc(O)c(O)c2)C2=C1CC(c1ccccc1)CC2=O (stereo not shown) [Example 6, 10-decyl-9-(3,4-dihydroxyphenyl)-3,6-diphenyl-3,4,6,7,9,10-hexahydroacridine-1,8(2H,5H)-dione] |  | 0.04 μg sample per 1 μg of Trolox |  | 
8 | CCCCCCCCCCN1C2=C(C(=O)CC(C)(C)C2)C(c2cc(OC)c(O)c(OC)c2)C2=C1CC(C)(C)CC2=O [Example 7, 10-decyl-9-(4-hydroxy-3,5-dimethoxyphenyl)-3,3,6,6-tetramethyl-3,4,6,7,9,10-hexahydroacridine-1,8(2H,5H)-dione] |  | 0.81 μg sample per 1 μg of Trolox | 5.34 | activation at 10 µM [2]: -56%
9 | CCCCCCCCCCCCN1C2=C(C(=O)CC(C)(C)C2)C(c2cc(C(C)(C)C)c(O)c(C(C)(C)C)c2)C2=C1CC(C)(C)CC2=O [Example 8, 10-dodecyl-9-(3,5-di-tert-butyl-4-hydroxyphenyl)-3,3,6,6-tetramethyl-3,4,6,7,9,10-hexahydroacridine-1,8(2H,5H)-dione] |  | 62 μg sample per 1 μg of Trolox and 61.9 μg sample per 1 μg of Trolox | > 5 | activation at 20 µM [2]: -46%
10 | CCCCCCCCCCCCN1C2=C(C(=O)CC(C(C)C)C2)C(c2ccc(O)c(OC)c2)C2=C1CC(C(C)C)CC2=O (stereo not shown) [Example 9, 10-dodecyl-9-(4-hydroxy-3-methoxyphenyl)-3,6-diisopropyl-3,4,6,7,9,10-hexahydroacridine-1,8(2H,5H)-dione] |  | 1.57 μg sample per 1 μg of Trolox | > 5 | activation at 10 µM [2]: -49%
11 | O=C1O[C@H]([C@@H](O)CO)C(O)=C1O [Vitamin C] | very good (0.1 to 3.0) |  |  | 
12 | Albumin | poor (>1000) |  |  | 
